{
  "source": "paper PMC5554137",
  "about": "“Evaluation of novel factor Xa inhibitors from Oxya chinensis sinuosa with anti-platelet aggregation activity” (Scientific Reports, 2017)",
  "key": {"FXa [1]": {"target": "T1, FXa (Homo sapiens, UniProt P00742)", "T1 construct": "purchased Haematologic Technologies (Essex Junction, VT, USA)", "T1 sequence (P00742 235-488 limits assumed)": "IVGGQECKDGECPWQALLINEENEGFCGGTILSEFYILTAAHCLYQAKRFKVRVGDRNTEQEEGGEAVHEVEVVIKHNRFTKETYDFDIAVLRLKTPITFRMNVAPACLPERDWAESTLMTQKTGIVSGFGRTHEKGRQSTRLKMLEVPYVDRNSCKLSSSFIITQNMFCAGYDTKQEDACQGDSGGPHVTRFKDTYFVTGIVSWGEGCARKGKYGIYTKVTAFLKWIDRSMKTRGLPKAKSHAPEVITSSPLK", "T1 sequence (P00742 41-179 limits assumed)": "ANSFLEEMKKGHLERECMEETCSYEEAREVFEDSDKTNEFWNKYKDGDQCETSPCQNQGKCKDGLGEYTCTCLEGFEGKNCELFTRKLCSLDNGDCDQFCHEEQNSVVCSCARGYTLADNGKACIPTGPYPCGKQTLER", "experiment": "Chromogenic substrate assay, Ki determination, Factor Xa", "format": "biochemical", "procedure": "(§1) The inhibitor (I) constants (Ki) were determined for the inhibition of a series of human enzymes (FXa, thrombin, trypsin, plasmin, protein Ca, streptokinase, tPA, and urokinase) by each compound. Chromogenic substrate assays were performed using a Labsystems IEMS (Cergy Pontoise, France) microtiter plate reader. In each assay, the compound was tested at a minimum of seven concentrations in duplicate to obtain an inhibition curve. Assays were performed according to the following general procedure. In a 96-well microtiter plate, 25 μL of compound, inhibitor solution or buffer was added to 50 μL of substrate. A volume of 25 μL of enzyme solution was added just before the plate was placed in the microtiter plate reader for 1 h at 37 °C. The hydrolysis of the substrate yields p-nitroaniline, which was continuously monitored spectrophotometrically at 405 nm. Data were collected and the initial rate of substrate hydrolysis [Vo (mOD/minute)] was calculated. Following Michaelis-Menten kinetics, the affinity of the enzyme for the substrate, in the absence of the inhibitor (Km) and in the presence of an inhibitor (Kp), was determined to be the negative inverse x-intercept of Lineweaver–Burk plots. The dissociation constant for inhibition (Ki) was calculated using the following equation: Ki = (Km·[I])/(Kp − Km) as described by Williams and Morrison[40]."}, "Trypsin": {"test_system": "Trypsin", "experiment": "Chromogenic substrate assay, Ki determination, Trypsin", "format": "biochemical, human", "procedure": "as §1"}, "Plasmin": {"target": "Plasmin (Homo sapiens, UniProt P00747)", "sequence (P00747 581-810 limits assumed)": "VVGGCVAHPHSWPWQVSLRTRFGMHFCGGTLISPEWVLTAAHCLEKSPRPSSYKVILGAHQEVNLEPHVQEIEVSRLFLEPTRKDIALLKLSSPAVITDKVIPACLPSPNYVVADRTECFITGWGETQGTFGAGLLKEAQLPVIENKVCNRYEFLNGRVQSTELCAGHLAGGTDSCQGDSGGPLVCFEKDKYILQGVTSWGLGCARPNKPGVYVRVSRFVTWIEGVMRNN", "sequence (P00747 97-580 limits assumed)": "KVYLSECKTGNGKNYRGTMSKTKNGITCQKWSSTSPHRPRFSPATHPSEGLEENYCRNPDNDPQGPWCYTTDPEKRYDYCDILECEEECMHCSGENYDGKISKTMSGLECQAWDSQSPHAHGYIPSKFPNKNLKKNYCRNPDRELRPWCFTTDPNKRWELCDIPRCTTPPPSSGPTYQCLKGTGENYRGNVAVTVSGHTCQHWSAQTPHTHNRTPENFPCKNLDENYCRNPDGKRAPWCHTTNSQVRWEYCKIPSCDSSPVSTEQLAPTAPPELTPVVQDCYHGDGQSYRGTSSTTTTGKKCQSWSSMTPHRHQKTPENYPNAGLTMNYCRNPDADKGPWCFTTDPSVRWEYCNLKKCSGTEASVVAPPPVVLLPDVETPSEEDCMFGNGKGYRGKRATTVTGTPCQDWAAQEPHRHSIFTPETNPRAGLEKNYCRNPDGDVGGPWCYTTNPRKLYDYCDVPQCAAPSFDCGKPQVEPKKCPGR", "experiment": "Chromogenic substrate assay, Ki determination, Plasmin", "format": "biochemical", "procedure": "as §1"}, "Urokinase": {"target": "Urokinase (Homo sapiens, UniProt P00749)", "experiment": "Chromogenic substrate assay, Ki determination, Urokinase", "format": "biochemical", "procedure": "as §1"}, "FXa [2]": {"target": "T1, FXa", "experiment": "Inhibition of amidolytic activity of FXa toward S-2222 (Michaelis-Menten, Lineweaver-Burk; with or without TFPI)", "format": "biochemical", "conditions": "for slope of inhibition activity plot: FXa", "procedure": "To elucidate the mechanisms responsible for inhibition of coagulation and platelet aggregation by compounds 1–4, inhibition of FXa activity was determined using chromogenic substrates. […] We observed a decrease in Vmax, with no effect on the Km of FXa toward S-2222 in the presence of compound 1. […] We also observed a slope of 0.401 for the control without compound 2, and slopes of 0.442 and 0.465 for compound 2 at concentrations of 2 and 5 µM, respectively. […] We observed a decrease in Vmax, with no effect on the Km of FXa toward S-2222 in the presence of compound 2. […] Inhibition activity plots were obtained for different concentrations of compound 3, showing a slope of 0.388 for the control without compound 3, and slopes of 0.408 and 0.464 for compound 3 at concentrations of 2 and 5 µM, respectively. […] We also observed a slope of 0.363 for the control without compound 4, and slopes of 0.376 and 0.398 for compound 4 at concentrations of 2 and 5 µM, respectively. […] We observed a decrease in Vmax, with no effect on the Km of FXa toward S-2222 in the presence of compound 4.\nFigure 6 Effects of compounds 1–4 on inhibition and production of FXa. […] The plots represent means of three independent measurements. (E) Human umbilical vein endothelial cells (HUVECs) were pre-incubated with the indicated concentration of each compound for 10 min. HUVECs stimulated with tumor necrosis factor-α (TNF-α, 10 ng/mL for 6 h) were incubated with FVIIa (10 nM) and FX (175 nM) in the absence or presence of anti-TF IgG (25 µg/mL). FXa production was determined as described in the “ Supplementary Materials and Methods” section. D = 0.2% DMSO used as the vehicle control. (F) Inhibition of FXa by each compound (5 μM) with or without TFPI (2 nM) was monitored using a chromogenic assay. ^* p < 0.05 vs. TNF-α alone (E) or each compound (F) alone, analyzed via one-way ANOVA, followed by Tukey multiple comparison testing.\nEach compound with or without TFPI was dissolved in 50 mM Tris-HCl buffer (pH 7.4) containing 7.5 mM EDTA and 150 mM NaCl. Following a 2-min incubation at 37 °C, FXa solution (150 μL, 1 U/mL) was added, followed by incubation at 37 °C for 1 min. S-2222 (an FXa substrate, 150 μL, 1.5 mM) solution was subsequently added, and the absorbance at 405 nm was monitored for 20 min using a spectrophotometer (TECAN, Männedorf, Switzerland). The absorbance-time curve and the slope of the curve (Vi) were used to represent the activity of the enzyme. Distilled water served as a control (the slope of curve V0). The inhibitory effect was calculated according to equation (1):1 Inhibitoryrate(%)=(V0−Vi)/V0×100 where V0 represents the slope of the vehicle and Vi represents the slope of the samples."}},
  "data": [
    {"smiles": "CC(=O)NCCc1ccc2c(c1)O[C@H](c1ccc(O)c(O)c1)[C@H](NC(C)=O)O2", "note": "[Compound 1, (2 R,3 R)-2-(3′,4′-dihydroxyphenyl)-3-acetylamino-7-(N-acetyl-2″-aminoethyl)-1,4-benzodioxane]", "values": [
      {"measurement": "Ratio = Ki enzyme/Ki Factor Xa, Factor Xa", "setting": "FXa [1]", "value": 1},
      {"measurement": "Ki", "setting": "FXa [1]; substrate S-2765 (Table 3), mean ± SD (n = 5)", "value": "2960 ± 250", "unit": "nM"},
      {"measurement": "Ratio = Ki enzyme/Ki Factor Xa, Trypsin", "setting": "Trypsin", "value": ">100"},
      {"measurement": "Ki", "setting": "Trypsin; substrate S-2222", "value": "> 300000", "unit": "nM"},
      {"measurement": "Ratio = Ki enzyme/Ki Factor Xa, Plasmin", "setting": "Plasmin", "value": ">100"},
      {"measurement": "Ki", "setting": "Plasmin; substrate S-2251", "value": "> 300000", "unit": "nM"},
      {"measurement": "Ratio = Ki enzyme/Ki Factor Xa, Urokinase", "setting": "Urokinase", "value": ">100"},
      {"measurement": "Ki", "setting": "Urokinase; substrate S-2444", "value": "> 300000", "unit": "nM"},
      {"measurement": "Km of FXa toward S-2222 in the presence of compound", "setting": "FXa [2]", "value": "no effect"},
      {"measurement": "Vmax of FXa toward S-2222 in the presence of compound", "setting": "FXa [2]", "value": "decrease"},
      {"measurement": "type of inhibition of FXa (Lineweaver-Burk plots)", "setting": "FXa [2]; S-2222", "value": "noncompetitive inhibition"},
      {"measurement": "slope of inhibition activity plot", "setting": "FXa [2]; compound at 2 µM, S-2222", "value": 0.707},
      {"measurement": "slope of inhibition activity plot", "setting": "FXa [2]; compound at 5 µM, S-2222", "value": 0.957},
      {"measurement": "Ki", "setting": "FXa [2]; substrate S-2222", "value": 2960, "unit": "nM"}
    ]}
  ]
}
